This test concerns T1, A. niger lipase.
T1 construct: commercial preparation, Fluka Analytical
The test can be described thus: fluorescence, 4-mU release. The class given is biochemical, Aspergillus niger. Conditions: 0.1 M phosphate pH 7, 30 °C, 5% DMSO. The text has this:
fluorescence, 4-mU release on A. niger lipase
On to `CCOCCOC(=O)c1ccc(C(=O)Oc2ccc3c(C)cc(=O)oc3c2)cc1` [B, 2-Ethoxyethyl (4-Methyl-2-oxo-2H-chromen-7-yl) Terephthalate], for which the Km (in general, the concentration of substrate that gives half-maximal velocity) is 1 ± 0.1 µM.
Regarding `COC(=O)c1ccc(C(=O)OCCOC(=O)c2ccc(C(=O)Oc3ccc4c(C)cc(=O)oc4c3)cc2)cc1` [C, 2-((4-(Methoxycarbonyl)benzoyl)oxy)ethyl (4-Methyl-2-oxo-2H-chromen-7-yl) Terephthalate], the Km worked out at 0.6 ± 0.1 µM.
To `COC(=O)c1ccc(C(=O)Oc2ccc3c(C)cc(=O)oc3c2)cc1` [A, Methyl (4-Methyl-2-oxo-2H-chromen-7-yl) Terephthalate] belongs 5.7 ± 0.5 µM.
